We go through five compounds from patent US10322136B2, “Composition for inhibiting growth or proliferation of chronic myelogenous leukemia cancer stem cells, and screening method therefor” (HIROSHIMA UNIVERSITY, priority 2015, dated 2019).

One test deals with Raptor-Ser863. In words: Duolink in situ PLA, Raptor-Ser863 phosphorylation in LT-CML cancer stem cells. The test is classed as cell-based, mouse. As to conditions: 30 min; GlySar or cefadroxil 5 μM; rapamycin 100 nM. Here is the method:
(§1) To examine phosphorylation of Smad2, Smad3, p38MAPK, AMPK, and S6 ribosomal protein, and Foxo3a-Smad2 and Foxo3a-Smad3 interactions, Duolink® in situ PLA assay (Olink Bioscience) was used. LT-CML stem cells, ST-CML stem cells, CD48^+, MPP, and KLS^− CML cells that were freshly isolated from CML-affected mice, and LT-normal HSCs that were freshly isolated from healthy control littermates, were immediately fixed with 4% paraformaldehyde for 30 min.
(§2) For in vitro inhibitor experiments, LT-CML stem cells were incubated in 3% O2 at 37° C. for 30 min with vehicle (control; artificial gastric fluid solution (900 ml ddH2O containing 2.0 g of NaCl, 7 ml of conc. HCl and 3.2 g of pepsin)), 5 μM Ly364947 (TGF-β type I receptor kinase Alk5 inhibitor; Merck), 5 μM SB203580 (p38MAPK inhibitor; LC Laboratories), 5 μM GlySar (dipeptide transporter inhibitor; Sigma-Aldrich), 5 μM cefadroxil (dipeptide transporter inhibitor; Sigma-Aldrich), or 100 nM rapamycin (mTORC1 inhibitor; Cell Signaling Technologies). […]
(§3) The proximate binding of these antibodies was then detected using Duolink® in situ PLA system which employs a set of two secondary antibodies in which one is conjugated to a minus strand PLA probe and the other is conjugated to a plus strand PLA probe. […] The number of fluorescent foci per single cell was quantified using Duolink®Image Tool software (Olink Bioscience).

For a further test, the system named is Raptor-Ser792. Description: Raptor-Ser792 phosphorylation in LT-CML cancer stem cells. The test is classed as cell-based, mouse. Particulars: LT-CML cancer stem cells in vitro.
A further test has as its system Smad3 Ser208. Description: Duolink in situ PLA, Smad3 Ser208 phosphorylation in LT-CML cancer stem cells. Type of test: cell-based, mouse. Here is the method:
as §1
(§4) For in vitro inhibitor experiments, LT-CML stem cells were incubated in 3% O2 at 37° C. for 30 min with vehicle (control; artificial gastric fluid solution (900 ml ddH2O containing 2.0 g of NaCl, 7 ml of conc. HCl and 3.2 g of pepsin)), 5 μM Ly364947 (TGF-β type I receptor kinase Alk5 inhibitor; Merck), 5 μM SB203580 (p38MAPK inhibitor; LC Laboratories), 5 μM GlySar (dipeptide transporter inhibitor; Sigma-Aldrich), 5 μM cefadroxil (dipeptide transporter inhibitor; Sigma-Aldrich), or 100 nM rapamycin (mTORC1 inhibitor; Cell Signaling Technologies). Treated cells were fixed with 4% paraformaldehyde for 30 min, and treated with 0.25% Triton X-100 for 15 min, washed and blocked by incubation in 5% FBS in TBS for 1 hr.
(§5) The proximate binding of these antibodies was then detected using Duolink® in situ PLA system which employs a set of two secondary antibodies in which one is conjugated to a minus strand PLA probe and the other is conjugated to a plus strand PLA probe. Nuclei were stained with DNA marker DAPI (Sigma). Stained slides were mounted using Fluoromount Plus (Diagnostic Biosystems) and fluorescent images were acquired by confocal microscopy (FV10i, Olympus) and Photoshop software (Adobe). The number of fluorescent foci per single cell was quantified using Duolink®Image Tool software (Olink Bioscience).

Another test deals with AMPK. Description: Duolink in situ PLA, AMPK phosphorylation in LT-CML cancer stem cells. The test is classed as cell-based, mouse. As to conditions: LT-CML cancer stem cells in vitro. How it is done:
as §1, §4, §5

In another test the test system is S6 ribosomal protein. In words: Duolink in situ PLA, S6 ribosomal protein phosphorylation in LT-CML cancer stem cells. The test is classed as cell-based, mouse. Particulars: 30 min; GlySar or cefadroxil 5 μM; rapamycin 100 nM. How it is done:
as §1, §2, §3

Test [1] deals with CML-KLS+ cells. In words: Metabolomic analysis of CML-KLS+ cells treated in vitro with protein degradation inhibitors. As to conditions: 100 nM, 2 hrs in vitro, hypoxic (3% O2). Type of test: cell-based, mouse. How it is done: (§6) To detect inhibition of dipeptide uptake in vivo, immature KLS^+ cells were isolated from tet-inducible CML-affected (Tal1-tTA^+TRE-BCR-ABL1^+) mice (n=4 mice in each of the three independent experiments), and normal healthy littermate (Tal1-tTA^+) mice (n=6 mice in each of the two independent experiments) that had received vehicle or cefadroxil (36 mgKg^−1day^−1) by oral gavage for 30 days. […] In all cases, isolated cell pellets were frozen at −80° C. immediately after obtaining. Metabolomic profiling was performed by Metabolon Inc. (Durham, N.C.) using ultrahigh-performance liquid chromatography/mass spectroscopy (UPLC/MS/MS) and gas chromatography/MS (GC/MS). Data were compiled using the Metabolon LIMS (Laboratory Information Management System). The UPLC/MS/MS portion of the platform was based on a Waters Acquity UPLC (Waters) and a Q-Exactive high-resolution/accurate mass spectrometer (Thermo Scientific) interfaced with a heated electrospray ionization (HESI-II) source and Orbitrap mass analyzer. GC/MS was performed by a Trace DSQ fast-scanning single-quadrupole mass spectrometer using electron impact ionization (Thermo-Finnigan).

Test [2] deals with CML-KLS+ cells. Description: Metabolomic analysis of dipeptides in KLS+ cells from treated CML-affected mice. Type of test: in vivo, mouse. As to conditions: IM 100 mg/kg/day for 30 days (1 month). Here is the method: as §6
For another test, the system named is SLC15A2 mRNA. Particulars: nine CML patients, 1 month after IM therapy; public database; cited from earlier work.

Counter-ions that a name gives are not always drawn. Where a SMILES comes first, the peptide text is derived from it. [ ]: non-standard residue; d: D form. Sar = CNCC(=O)O

As to `CN(CC(=O)O)C(=O)CN` [GlySar, glycylsarcosine] (H-Gly-[Sar]-OH), in the test on Raptor-Ser863, the “phosphorylation of Raptor-Ser863” value was “decreased phosphorylation”. Further, the Raptor-Ser792 phosphorylation entry in the test with Raptor-Ser792 is recorded as “did not promote”. In addition, the “Smad3 Ser208 phosphorylation” value in the test with Smad3 Ser208 (30 min, GlySar or cefadroxil 5 μM, rapamycin 100 nM) is listed as “blocked”. The “phosphorylation of AMPK” value in the test on AMPK is “increased”. The “phosphorylation of S6” value in the test on S6 ribosomal protein was “decreased phosphorylation”.

Consider `CN(C)C(=N)N=C(N)N` [Metformin], for which, in the test with Raptor-Ser792, the Raptor-Ser792 phosphorylation entry is listed as “increases”. In addition, the “phosphorylation of AMPK” value in the test with AMPK is reported as “increases”.

Take `CC(C)C[C@H](NC(=O)[C@H](Cc1ccccc1)NC(=O)c1cnccn1)B(O)O` [Bortezomib]: in the test with CML-KLS+ cells [1], the dipeptide accumulation entry was “increased significantly” and the individual amino-acid levels result was “decreased”.

With `CO/C1=C\C(C)=C\[C@@H](C)[C@@H](O)[C@@H](C)C/C(C)=C/C=C/[C@H](OC)[C@@H]([C@@H](C)[C@@H](O)[C@H](C)[C@@]2(O)C[C@@H](O)[C@H](C)[C@@H](C(C)C)O2)OC1=O` [Bafilomycin A1], in the test with CML-KLS+ cells [1], the dipeptide accumulation entry is reported as “increased significantly” and the individual amino-acid levels entry was “decreased”.

As to `Cc1ccc(NC(=O)c2ccc(CN3CCN(C)CC3)cc2)cc1Nc1nccc(-c2cccnc2)n1` [IM, imatinib mesylate], the “dipeptide levels in CML-KLS+ cells” value with CML-KLS+ cells [2] is reported as “tended to decrease”. Moreover, the “SLC15A2 mRNA levels in CML patients” value in the test on SLC15A2 mRNA is recorded as “decreased to a level comparable to that in healthy individuals”. Moreover, the “levels of phospho-Smad3-Ser208” value in the test with Smad3 Ser208 (IM treatment of murine LT-CML stem cells in vitro) is reported as “reduced”.
